Assay results from US4100274A, “Polypeptide” (Imperial Chemical Industries Limited, priority 1976, dated 1978).

Assay: toxic effects at multiples of the minimum active dose
Format: in vivo, rats
Settings: dosed at one hundred times their minimum effective dose
In the case of `CC(C)C[C@H](NC(=O)[C@@H](Cc1ccccc1)NC(=O)[C@H](Cc1ccc(O)cc1)NC(=O)[C@H](CO)NC(=O)[C@H](Cc1c[nH]c2ccccc12)NC(=O)[C@H](Cc1c[nH]cn1)NC(=O)[C@@H]1CCC(=O)N1)C(=O)N[C@@H](CCCNC(=N)N)C(=O)N1CCC[C@H]1C(=O)NNC(N)=O` [Example 4], the toxic effects was “no toxic effects”.
With `COc1ccc(C[C@@H](NC(=O)[C@H](Cc2ccc(O)cc2)NC(=O)[C@H](CO)NC(=O)[C@H](Cc2c[nH]c3ccccc23)NC(=O)[C@H](Cc2c[nH]cn2)NC(=O)[C@@H]2CCC(=O)N2)C(=O)N[C@@H](CC(C)C)C(=O)N[C@@H](CCCNC(=N)N)C(=O)N2CCC[C@H]2C(=O)NNC(N)=O)cc1` [Example 6] the toxic effects was “no toxic effects”.
With `CC(C)C[C@H](NC(=O)[C@@H](COC(C)(C)C)NC(=O)[C@H](Cc1ccc(O)cc1)NC(=O)[C@H](CO)NC(=O)[C@H](Cc1c[nH]c2ccccc12)NC(=O)[C@H](Cc1cnc[nH]1)NC(=O)[C@@H]1CCC(=O)N1)C(=O)N[C@@H](CCCNC(=N)N)C(=O)N1CCC[C@H]1C(=O)NNC(N)=O` [Example 7] the toxic effects was “no toxic effects”.
